Data published in patent US20050282824A1, “Substituted pyrimidines as inhibitors of bacterial type III protein secretion systems” (priority 2004, published 2005).

What was measured:
Assay type in all cases: cell-based
[1] = tested on: Type III protein secretion of ExoU by P. aeruginosa PA103; assay: Tertiary assay: Type III-dependent secretion of ExoU by P. aeruginosa PA103; details: Pseudomonas aeruginosa, read-out: ExoU IC50(uM)
Summary of the method: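 PA103 grown in deferrated medium with nitrilotriacetic acid to induce Type III secretion, with or without inhibitor, over a prolonged growth period. Supernatant proteins concentrated by ammonium sulfate precipitation, separated by SDS-PAGE, Colloidal Blue-stained; 73.9 kDa ExoU band quantified by imaging relative to untreated controls.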

[2] = tested on: SPI1 type III protein secretion of SopE'-'Bla by Salmonella enterica; assay: Primary assay: Type III protein secretion of the chimeric SopE'-'Bla polypeptide by Salmonella enterica; details: read-out: SopE IC50(uM)
Summary of the method: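 S. enterica grown under SPI1-favouring conditions was induced to express SopE′-′Bla (SopE secretion signal fused to signal-less TEM-1 β-lactamase) and cultured with or without compound for a set time. Secreted reporter was quantified by colorimetric hydrolysis of cell-impermeant nitrocefin added to the cultures.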

[3] = tested on: SPI1 type III protein secretion of SipB by S. enterica; assay: Secondary assay: Type III-dependent protein secretion of the SipB polypeptide by S. enterica; details: Salmonella enterica, read-out: SipB IC50(uM)
Summary of the method: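 S. enterica cultured with or without inhibitor and induced for SipB production; after growth, cells pelleted and secreted SipB in supernatant measured by immunoblot with anti-SipB mouse monoclonal plus HRP anti-mouse and chemiluminescence, quantified by scanning imager. Inhibition expressed relative to untreated controls.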

SMILES | IC50 [1] | IC50 [2] | IC50 [3]
O=C(N[C@@H](CSCc1ccccc1)C(=O)O)c1cc(N2CCN(c3ccccc3)CC2)nc(-c2ccc(C(F)(F)F)cc2)n1 [Compound 23, (R)-3-Benzylsulfanyl-2-{[6-(4-phenyl-piperazin-1-yl)-2-(4-trifluoromethylphenyl)-pyrimidine-4-carbonyl]amino}propionic acid] | 73 µM | 3.3 µM | 31.7 µM
O=C(N[C@@H](CSCc1ccccc1)C(=O)O)c1cc(N2CCCCC2)nc(-c2ccc(-c3ccccc3)cc2)n1 [Compound 3, (R)-3-Benzylsulfanyl-2-[(2-biphenyl-4-yl-6-piperidin-1-yl-pyrimidine-4-carbonyl)-amino]propionic acid] | 37.6 µM | 4.1 µM | 3 µM
Cc1cc(C(=O)NC(CSCc2ccccc2)C(=O)O)nc(-c2ccc(-c3ccccc3)cc2)n1 (stereo not drawn) [Compound 35, 3-Benzylsulfanyl-2-[(2-biphenyl-4-yl-6-methyl-pyrimidine-4-carbonyl)-amino]-propionic acid] | > 100 µM | 17.7 µM | 59.2 µM
CC1CCN(c2cc(C(=O)NC(Cc3ccc(Cl)cc3)C(=O)O)nc(-c3ccc(Oc4ccccc4)cc3)n2)CC1 (stereo not drawn) [Compound 39, 3-(4-Chlorophenyl)-2-{[6-(4-methylpiperidin-1-yl)-2-(4-phenoxyphenyl)-pyrimidine-4-carbonyl]amino}propionic acid] | 74.5 µM | 1.5 µM | 13.2 µM
O=C(NC(Cc1ccc(Cl)cc1)C(=O)O)c1cc(-c2ccc(C(F)(F)F)cc2)nc(N2CCN(c3ccccn3)CC2)n1 (stereo not drawn) [Compound 43, 3-(4-Chlorophenyl)-2-{[2-(4-pyridin-2-yl-piperazin-1-yl)-6-(4-trifluoromethyl-phenyl)pyrimidine-4-carbonyl]amino}propionic acid] | > 100 µM | 8.1 µM | 74.2 µM
O=C(N[C@@H](CSCc1ccccc1)C(=O)O)c1cc(N2CCN(c3ccccc3)CC2)nc(-c2ccc(F)c(F)c2)n1 [Compound 19, (R)-3-Benzylsulfanyl-2-{[2-(3,4-difluorophenyl)-6-(4-phenyl-piperazin-1-yl)-pyrimidine-4-carbonyl]amino}propionic acid] | 67.8 µM | 6.4 µM | 8 µM
CN(C)c1ccc(-c2nc(C(=O)N[C@H](Cc3ccc(Cl)cc3)C(=O)O)cc(N3CCc4ccccc4C3)n2)cc1 [Compound 6, (R)-3-(4-Chlorophenyl)-2-{[6-(3,4-dihydro-1H-isoquinolin-2-yl)-2-(4-dimethylaminophenyl)pyrimidine-4-carbonyl]amino}propionic acid] | 68.4 µM | 4.5 µM | 50 µM
C[C@@H](OCc1ccccc1)[C@H](NC(=O)c1cc(N2CCCCC2)nc(N2CCC(c3ccccc3)CC2)n1)C(=O)O [Compound 30, (2S,3R)-3-Benzyloxy-2-{[2-(4-phenylpiperidin-1-yl)-6-piperidin-1-yl-pyrimidine-4-carbonyl]amino}butyric acid] | > 100 µM | 4.6 µM | 17.9 µM
O=C(N[C@H](Cc1ccc(Cl)cc1)C(=O)O)c1cc(N2CCC(c3ccccc3)CC2)nc(-c2cccc(C(F)(F)F)c2)n1 [Compound 12, (R)-3-(4-Chlorophenyl)-2-{[6-(4-phenylpiperidin-1-yl)-2-(3-trifluoromethyl-phenyl)pyrimidine-4-carbonyl]amino}propionic acid] | > 100 µM | 1.4 µM | 28.1 µM
